Data from the NIST ThermoML archive (doi:10.1016/j.fluid.2006.01.026).
Numbers after ± are expanded uncertainties.

Settings: 101.33 kPa, Liquid; for viscosity: Capillary tube (Ostwald / Ubbelohde) method; for mass density: Vibrating tube method

| Structure (SMILES) | viscosity (283.15 K) [mPa·s] | mass density (283.15 K) [kg/m3] | viscosity (293.15 K) [mPa·s] | mass density (298.15 K) [kg/m3] | viscosity (303.15 K) [mPa·s] | viscosity (313.15 K) [mPa·s] | viscosity (323.15 K) [mPa·s] | mass density (323.15 K) [kg/m3] | viscosity (333.15 K) [mPa·s] | viscosity (343.15 K) [mPa·s] | mass density (348.15 K) [kg/m3] | viscosity (353.15 K) [mPa·s] | viscosity (363.15 K) [mPa·s] | viscosity (373.15 K) [mPa·s] |
| --- | --- | --- | --- | --- | --- | --- | --- | --- | --- | --- | --- | --- | --- | --- |
| CCCCCCCCCCCCCC[P+](CCCC)(CCCC)CCCC.O=S(=O)([O-])C(F)(F)C(F)C(F)(F)F | 2512 ± 300 | 1082 ± 2 | 1103 ± 120 | 1070 ± 2 | 539 ± 58 | 289 ± 30 | 167 ± 17 | 1052 ± 2 | 103 ± 10 | 66.6 ± 6.7 | 1034 ± 2 | 45 ± 4.5 | 31.5 ± 3.2 | 22.6 ± 2.3 |
| CCCCn1cc[n+](C)c1.O=S(=O)([O-])C(F)(F)C(F)OC(F)(F)C(F)(F)F (stereo not drawn) | 1021 ± 110 | – | 444 ± 48 | – | 218 ± 23 | 119 ± 12 | 71.2 ± 7.2 | – | 45.9 ± 4.6 | 31.6 ± 3.2 | – | 22.9 ± 2.3 | 17.3 ± 1.7 | 13.5 ± 1.4 |

The next lines start with the values.

| viscosity (283.15 K) [mPa·s] | mass density (283.15 K) [kg/m3] | viscosity (293.15 K) [mPa·s] | mass density (298.15 K) [kg/m3] | viscosity (303.15 K) [mPa·s] | viscosity (313.15 K) [mPa·s] | viscosity (323.15 K) [mPa·s] | mass density (323.15 K) [kg/m3] | viscosity (333.15 K) [mPa·s] | viscosity (343.15 K) [mPa·s] | mass density (348.15 K) [kg/m3] | viscosity (353.15 K) [mPa·s] | viscosity (363.15 K) [mPa·s] | viscosity (373.15 K) [mPa·s] | Structure (SMILES) |
| --- | --- | --- | --- | --- | --- | --- | --- | --- | --- | --- | --- | --- | --- | --- |
| 853 ± 94 | – | 378 ± 40 | – | 192 ± 20 | 108 ± 11 | 66.8 ± 6.8 | – | 44.2 ± 4.5 | 30.8 ± 3.1 | – | 22.3 ± 2.2 | 16.6 ± 1.7 | 12.5 ± 1.3 | CCCC[n+]1ccn(C)c1.O=S(=O)([O-])C(F)(F)C(F)C(F)(F)F (stereo not drawn) |
| 1319 ± 150 | 1075 ± 2 | 625 ± 68 | 1063 ± 2 | 330 ± 35 | 191 ± 20 | 118 ± 12 | 1044 ± 2 | 77.4 ± 7.8 | 52.9 ± 5.3 | 1025 ± 2 | 37.2 ± 3.8 | 26.7 ± 2.7 | 19.3 ± 1.9 | CCCCCCCCCCCCCC[P+](CCCCCC)(CCCCCC)CCCCCC.O=S(=O)([O-])C(F)(F)C(F)OC(F)(F)C(F)(F)F |
| 626 ± 68 | – | 298 ± 31 | – | 159 ± 16 | 93 ± 9 | 59 ± 6 | – | 39.8 ± 4 | 28.2 ± 2.8 | – | 20.7 ± 2.1 | 15.6 ± 1.6 | 11.9 ± 1.2 | CCCCn1cc[n+](C)c1.O=S(=O)([O-])C(F)(F)C(F)OC(F)(F)F (stereo not drawn) |
